{"source": "patent US20210386812A1", "about": "“DEVELOPMENT OF HEALTH FOOD SUPPLEMENTS AND ANTIOXIDANTS FOR CONTROLLING HYPERURICEMIA AND OXIDATIVE STRESS” (Baylor College of Medicine, priority 2018, published 2021)", "key": {"XO": {"test_system": "XO", "details": "in vitro; cited from earlier work"}, "[1]": {"details": "cited from earlier work"}, "Xanthine oxidase (XO) [2]": {"target": "T1, Xanthine oxidase (XO) (Homo sapiens, UniProt P47989)", "T1 sequence (P47989 whole entry, species assumed)": "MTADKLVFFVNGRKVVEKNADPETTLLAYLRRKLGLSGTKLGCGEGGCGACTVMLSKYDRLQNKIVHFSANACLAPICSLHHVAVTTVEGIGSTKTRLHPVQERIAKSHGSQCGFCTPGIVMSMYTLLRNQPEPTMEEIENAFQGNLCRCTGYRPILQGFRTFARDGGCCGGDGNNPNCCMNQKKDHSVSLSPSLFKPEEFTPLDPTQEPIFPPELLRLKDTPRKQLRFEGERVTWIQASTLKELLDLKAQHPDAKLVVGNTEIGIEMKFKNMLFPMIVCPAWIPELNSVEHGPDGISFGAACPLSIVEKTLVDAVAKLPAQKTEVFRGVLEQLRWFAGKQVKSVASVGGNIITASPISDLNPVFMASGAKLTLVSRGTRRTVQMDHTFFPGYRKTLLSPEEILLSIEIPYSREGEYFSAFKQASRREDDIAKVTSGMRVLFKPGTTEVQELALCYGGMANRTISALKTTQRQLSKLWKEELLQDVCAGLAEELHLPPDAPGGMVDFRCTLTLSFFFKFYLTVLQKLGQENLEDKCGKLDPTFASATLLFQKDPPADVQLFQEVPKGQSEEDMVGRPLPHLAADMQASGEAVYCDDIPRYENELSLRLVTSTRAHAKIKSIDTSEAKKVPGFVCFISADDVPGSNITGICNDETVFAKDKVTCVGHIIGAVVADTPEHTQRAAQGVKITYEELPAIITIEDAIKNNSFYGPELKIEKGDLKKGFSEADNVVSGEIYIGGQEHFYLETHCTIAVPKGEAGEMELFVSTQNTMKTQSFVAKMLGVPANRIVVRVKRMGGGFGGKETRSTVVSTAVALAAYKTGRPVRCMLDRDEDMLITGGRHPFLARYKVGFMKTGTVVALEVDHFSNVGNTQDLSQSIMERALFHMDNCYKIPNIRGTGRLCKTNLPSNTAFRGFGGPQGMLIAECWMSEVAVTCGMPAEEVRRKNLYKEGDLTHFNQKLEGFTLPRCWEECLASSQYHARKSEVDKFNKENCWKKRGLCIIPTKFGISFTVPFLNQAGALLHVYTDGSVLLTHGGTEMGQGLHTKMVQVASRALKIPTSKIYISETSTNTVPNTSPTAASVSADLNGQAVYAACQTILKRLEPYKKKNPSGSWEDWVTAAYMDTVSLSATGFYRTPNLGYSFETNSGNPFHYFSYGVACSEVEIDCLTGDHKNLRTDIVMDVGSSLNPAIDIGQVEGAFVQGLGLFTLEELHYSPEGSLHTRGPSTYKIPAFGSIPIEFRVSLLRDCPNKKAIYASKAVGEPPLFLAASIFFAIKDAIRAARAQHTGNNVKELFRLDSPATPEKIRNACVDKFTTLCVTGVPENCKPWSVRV", "test": "Xanthine oxidase (XO) inhibition assay in a cell-free system", "details": "for XO activity inhibition (in words): increasing concentrations", "procedure": "All 72 herb extracts (100 g) are in the powder form. Each extract was dissolved in water or DMSO respectively with strong votex, at stock concentration of 50 mg/ml. The solution was kept at room temperature for 30 min before centrifugation at 14k rpm. The clear solution was used for assay of XO inhibitory activity. XO activity was determined using the method of continuous spectrophotometric rate measurements (60). The reaction mixture contained xanthine in 67 mM phosphate buffer (pH 7.4) and 20 nM XO with an activity of 5 uU/mL, with or without extract solution. After pre-incubating the extract (at 0-10 ul) with XO for 1 min at 25° C., 50 uM xanthine was added to initiate the formation of uric acid, and the increase of absorption of uric acid at 295 nm was monitored in a dynamic mode. Initial rate of XO activity was recorded. […] For initial screen of herb extracts, final concentration of each extract was 163 ug/ml. Percentage of inhibition is calculated: Percentage of inhibition=(1−test OD/blank OD)×100\nXO inhibition assay for folic acid related molecules is similar to that for herb extracts. Folic acids were dissolved in DMSO. Dose-dependent of folic acids and photolysis effect were studied.\nFurthermore, we performed a dose dependent XO inhibition assay for each of these 14 extracts (DMSO-soluble fractions). […] IC50 is an operational parameter defined as the concentration of inhibitor required for achieving 50% inhibition of the enzyme.\nFolic acid and its two derivatives, dihydrofolic acid and tetrahydrofolic acid, were employed in the XO inhibition assay. When 20 nM XO was mixed with increasing concentrations of folic acid, dihydrofolic acid and tetrahydrofolic acid.\nThe initial rate of uric acid formation in the reaction system was recorded; and XO inhibition rate of each herb extract was calculated.\nFurthermore, a dose dependent XO inhibition assay was performed for each of these 15 extracts. […] IC50 is an operational parameter defined as the concentration of inhibitor required for achieving 50% inhibition of the enzyme."}, "serum uric acid": {"test_system": "serum uric acid", "test": "Hypouricemic effect in allantoxanamide-treated mice", "assay_type": "in vivo, C57BL/6 mice", "details": "Allantoxanamide 200 mg/kg i.p., at both 1.5 hours and 3 hours; Allopurinol 13.3 mg/kg, recipe 41.7 and 83.4 mg/kg", "experimental": "Recipe includes Japanese Thistle Extract, Grape Seed Extract, Amla Fruit Extract, Pine Bark Extract, Chinese Mint Extract and Folic acid. Mice were Intraperitoneally (i.p.)-injected with uricase inhibitor allantoxanamide to induce hyperuricemia in mice. […] Blood was taken from facial vein at 1.5 hour and 3 hour after the treatment. Serum uric acid level was measured the next day with a phosphotunstate method. N=4 per group.\nMouse experiment design, method and results. […] Folic acid solution was prepared separately by dissolving 2.6 mg folic acid in 1 ml 0.1 m potassium phosphate buffer, then 6 ul of this FA solution was added to the 10 ml extract solution.\nAdult C57BL/6 mice (about 20 g body weight) were used. Four groups of mice (n=4 per group) were assigned for different treatments or controls (Table 12). Intraperitoneal (i.p.) injection of uricase inhibitor allantoxanamide can effectively block the conversion of uric acid to 5-hydroxyisourate and thus cause a marked increase in serum uric acid levels in mice, providing a hyperuricemic animal model (34). […] Blood was taken from facial vein at 1.5 hours and 3 hours after the treatment. Serum uric acid level was measured with a phosphotunstate method."}, "Xanthine oxidase (XO) [3]": {"target": "T1, Xanthine oxidase (XO)", "test": "XO inhibition combination assay of herb extract with folic acid or 5-MTHF, added separately without pre-mixing", "details": "read-out: XO activity inhibition", "procedure": "All 14 traditional Chinese medicine herb extracts were tested. Folic acid (0.167 uM) and extract (13.3 ug/ml) were separately added into the XO reaction system without pre-mixing. XO activity was measured.\nFresh prepared 5-MTHF (3.3 uM) and herb extract (13.3 ug/ml) was added to XO reaction system separately, XO activity was recorded.\nEight herbal extracts were selected and tested. Folic acid (0.167 uM) and each extract at a defined concentration (ug/ml) were separately added into the XO reaction system without pre-mixing. XO activity was measured.\nBased on the result of dose-dependent XO inhibition experiments for herb extracts and folic acid, a relatively small concentration of each extract (a total of 14 extracts) and folic acid were utilized for a combination assay.\nFolic acid (0.167 uM) and extract (13.3 ug/ml) were separately added into the XO reaction system without pre-mixing. XO activity was measured.\nThe inventors also tested the combination of 5-MTHF with different traditional Chinese medicine herb extracts for their effect on XO activity in vitro (FIG. 10).\nBased on the result of dose-dependent XO inhibition experiments for herb extracts and folic acid, a relatively small concentration of each of 8 herbal extracts and folic acid were selected for a combination assay. […] XO activity was measured (FIG. 13)."}}, "note": "Values joined by “and” are separate entries in the source; they are usually repeats but may differ in a detail not shown here. Identical values can stand only once. “Also recorded” adds a separate entry of the source. Like-named read-outs stand apart in the source and are kept apart here.", "data": [{"molecule": "Nc1nc2ncc(C=O)nc2c(=O)[nH]1", "note": "[6-formyl pterin]", "values": [{"measurement": "XO inhibitory effect (literature)", "setting": "XO", "value": "very potent XO inhibitor"}]}, {"molecule": "Nc1nc2ncc(C(=O)O)nc2c(=O)[nH]1", "note": "[pterin-6-carboxylic acid]", "values": [{"measurement": "XO inhibitory effect (literature)", "setting": "XO", "value": "no XO inhibitory effect"}]}, {"molecule": "Cc1nc(-c2ccc(OCC(C)C)c(C#N)c2)sc1C(=O)O", "note": "[febuxostat]", "values": [{"measurement": "Patients with transaminase elevations greater than three times the upper limit of normal", "setting": "[1]; in some studies", "value": "2-3%"}, {"measurement": "Patients with cutaneous adverse effects", "setting": "[1]; initial clinical studies", "value": "about 2%"}]}, {"molecule": "CN1c2c(nc(N)[nH]c2=O)NCC1CNc1ccc(C(=O)N[C@@H](CCC(=O)O)C(=O)O)cc1", "note": "(stereo partly drawn) [Extract 5-MTHF, 5-methyl tetrahydrofolate]", "values": [{"measurement": "XO inhibitory potency relative to a comparator (in words)", "setting": "Xanthine oxidase (XO) [2]; cell-free system", "value": "weaker than folic acid"}, {"measurement": "XO activity inhibition (in words)", "setting": "Xanthine oxidase (XO) [2]; 20 nM XO", "value": "effectively inhibited XO activity; also recorded: inhibited XO activities in a concentration-dependent manner"}, {"measurement": "IC50", "setting": "Xanthine oxidase (XO) [2]; read-out: IC50 for XO inhibition, 20 nM XO, cell-free system", "value": "~35.6 µM and 35.6 µM"}]}, {"molecule": "Oc1ncnc2[nH]ncc12", "note": "[Allopurinol]", "values": [{"measurement": "Serum uric acid levels", "setting": "serum uric acid", "value": "significantly reduced serum uric acid levels"}]}, {"molecule": "Nc1nc2c(c(=O)[nH]1)NC(CNc1ccc(C(=O)N[C@@H](CCC(=O)O)C(=O)O)cc1)CN2", "note": "(stereo partly drawn) [tetrahydrofolic acid]", "values": [{"measurement": "XO inhibitory effect (literature)", "setting": "XO", "value": "stronger than that of folic acid"}, {"measurement": "XO inhibitory potency relative to a comparator (in words)", "setting": "Xanthine oxidase (XO) [2]; cell-free system", "value": "more potent than folic acid"}, {"measurement": "XO inhibitory potency relative to a comparator (in words)", "setting": "Xanthine oxidase (XO) [2]; cell-free system, listed as tetrahydrofolic", "value": "dihydrofolic acid>tetrahydrofolic>folic acid"}, {"measurement": "XO activity inhibition (in words)", "setting": "Xanthine oxidase (XO) [2]; 20 nM XO", "value": "significantly inhibited XO activity"}]}, {"molecule": "Nc1nc2c(c(=O)[nH]1)N=C(CNc1ccc(C(=O)N[C@@H](CCC(=O)O)C(=O)O)cc1)CN2", "note": "[dihydrofolic acid]", "values": [{"measurement": "XO inhibitory effect (literature)", "setting": "XO", "value": "stronger than that of folic acid"}, {"measurement": "XO inhibitory potency relative to a comparator (in words)", "setting": "Xanthine oxidase (XO) [2]; cell-free system", "value": "dihydrofolic acid>tetrahydrofolic>folic acid"}, {"measurement": "XO inhibitory potency relative to a comparator (in words)", "setting": "Xanthine oxidase (XO) [2]; cell-free system, listed as Dihydrofolic acid", "value": "more potent than folic acid"}, {"measurement": "XO activity inhibition (in words)", "setting": "Xanthine oxidase (XO) [2]; 20 nM XO", "value": "significantly inhibited XO activity"}]}, {"molecule": "Nc1nc2ncc(CNc3ccc(C(=O)N[C@@H](CCC(=O)O)C(=O)O)cc3)nc2c(=O)[nH]1", "note": "[folic acid]", "values": [{"measurement": "inhibition at 0.167 µM", "setting": "Xanthine oxidase (XO) [3]", "value": 16.5, "unit": "%"}, {"measurement": "IC50", "setting": "Xanthine oxidase (XO) [2]", "value": 0.75, "unit": "µM"}, {"measurement": "XO inhibitory potency relative to a comparator (in words)", "setting": "Xanthine oxidase (XO) [2]; cell-free system", "value": "stronger than Allopurinol and DHNB"}, {"measurement": "XO activity inhibition (in words)", "setting": "Xanthine oxidase (XO) [2]; 20 nM XO", "value": "significantly inhibited XO activity"}]}, {"molecule": "O=Cc1cc(O)c(O)c([N+](=O)[O-])c1", "note": "[DHNB, 3,4-Dihydroxy-5-nitrobenzaldehyde]", "values": [{"measurement": "IC50", "setting": "Xanthine oxidase (XO) [2]", "value": 3, "unit": "µM"}]}]}
